# Experimental data taken from patent US12595251B2, “Amidines and amidine analogs for the treatment of bacterial infections and potentiation antibiotics” (GEORGIA STATE UNIVERSITY RESEARCH FOUNDATION, INC., priority 2018, dated 2026).
# Where a name gives a salt, the structure may show the parent alone.
# Key:
# [1] = system: B. subtilis; test: MIC of compounds against B. subtilis (OD600, 48 h); assay type: cell-based; settings: Bacillus subtilis; for MIC: MIC = 90% growth inhibition, compound alone; for inhibition at 25 µM: read-out: Growth inhibition of B. subtilis at 25 μM, compound alone at 25 μM; for inhibition at 12.5 µM: compound alone at 12.5 μM, NA=no activity, read-out: Growth inhibition of B. subtilis at 12.5 μM; for inhibition at 2 µM: read-out: Growth inhibition of B. subtilis at 2 μM, compound alone at 2 μM; for inhibition at 12 µM: compound alone at 12 μM, read-out: Growth inhibition of B. subtilis at 12 μM; for inhibition at 6 µM: read-out: Growth inhibition of B. subtilis at 6 μM, compound alone at 6 μM, NA=no activity; for inhibition at 1 µM: read-out: Growth inhibition of B. subtilis at 1 μM, compound alone at 1 μM
# Protocol: Bacteria were then cultured with varying concentration of the compounds shown below for 48 hours, and then bacterial density was measured based on OD600. The procedure to determine the MIC for each compound against B. subtilis was the same except that the bacteria was cultured in nutrient broth. The MIC of each compound against B. subtilis is shown in Table 2 (NA=no activity, --=not tested).
# [2] = system: wild-type E. coli; test: Sensitization of wild-type E. coli toward antibiotics (MIC of antibiotic with/without sensitizer); assay type: cell-based, Escherichia coli; settings: compound at 5 μg/ml; strain and antibiotic not stated in Table 8
# Protocol: Bacteria were cultured with the antibiotic at various concentrations in the presence or absence of bacterial sensitizer for 24 hours at 37° C. Bacterial growth density was determined by measuring OD600 (absorbance measured at a wavelength of 600 nm). […]
# The formula for calculating FIC is shown below: […]
# [3] = system: E. coli; test: MIC of compounds against E. coli (OD600, 48 h); assay type: cell-based; settings: Escherichia coli; for inhibition at 25 µM: read-out: Growth inhibition of E. coli at 25 μM, compound alone at 25 μM, NA=no activity; for inhibition at 12 µM: compound alone at 12 μM, NA=no activity, read-out: Growth inhibition of E. coli at 12 μM; for inhibition at 50 µM: read-out: Growth inhibition of E. coli at 50 μM, compound alone at 50 μM, NA=no activity
SMILES,MIC [1] [µM],inhibition at 25 µM [3] [%],inhibition at 2 µM [1] [%],inhibition at 12 µM [3] [%],also measured
Cc1cc(COc2ccc(C3=CCCCN3)cc2)cc(COc2ccc(C3=NCCCN3)cc2)c1,50,–,–,–,inhibition at 25 µM [1]: 50%
"N=C(N)c1ccc(OCc2cccc(COc3ccc(C(=N)N)cc3F)c2F)c(F)c1 [Compound A-1, 4,4′-(((2-Fluoro-1,3-phenylene)bis(methylene))bis(oxy))bis(3-fluorobenzimidamide) Dihydrochloride]",–,–,–,–,Sensitization fold [2]: 8
"CC(C)(C)c1cc(COc2ccc(C(=N)N)cc2F)cc(COc2ccc(C(=N)N)cc2F)c1 [Compound E-15, 1,3-bis {[4-amidino-2-fluoro]-phenoxymethyl]}-5-(tert-butyl)benzene dihydrochloride]",–,–,–,–,Sensitization fold [2]: 256
"Cc1cc(COc2ccc(C(=N)N)cc2F)cc(COc2ccc(C(=N)N)cc2F)c1 [Compound E-18, 1,3-Bis {[4-amidino-2-fluoro)-phenoxymethyl]}-5-methyl-benzene dihydrochloride]",–,–,–,–,Sensitization fold [2]: 32
N=C(N)c1ccc2nc(-c3ccc(OCC(F)(F)C(F)(F)COc4ccc(-c5nc6ccc(C(=N)N)cc6[nH]5)cc4)cc3)[nH]c2c1 [drawing 753],–,50,–,–,inhibition at 12.5 µM [1]: 10%; inhibition at 25 µM [1]: 20%
Cn1c(CCCCc2nc3ccc(C(=N)N)cc3n2C)nc2ccc(C(=N)N)cc21 [drawing 754],–,–,–,–,inhibition at 25 µM [1]: 20%
N=C(N)c1ccc(Oc2ccc(C(=N)N)cc2)cc1 [drawing 755],–,–,–,–,inhibition at 12.5 µM [1]: 60%; inhibition at 25 µM [1]: 70%
N=C(N)c1ccc(OCc2ccc(-c3ccc(C(=N)N)cc3)cc2)cc1 [drawing 756],12.5,50,30,–,–
N=C(N)c1ccc(OCc2cccc(COc3ccc(C(=N)N)cc3F)c2F)c(F)c1 [drawing 757],12.5,70,10,40,inhibition at 50 µM [3]: 90%
N=C(N)c1ccc(OCc2cccc(COc3ccc(C(=N)N)cc3)c2F)cc1 [drawing 758],–,–,–,80,"inhibition at 6 µM ([3]; read-out: Growth inhibition of E. coli at 6 μM, compound alone at 6 μM): 60%; inhibition at 12 µM [1]: 60%; inhibition at 6 µM [1]: 50%"
Cn1c(CCc2nc3cc(C(=N)N)ccc3n2C)nc2cc(C(=N)N)ccc21 [drawing 759],–,–,–,–,inhibition at 50 µM [3]: 10%; inhibition at 12.5 µM [1]: 20%; inhibition at 25 µM [1]: 70%
Cc1cc(COc2ccc(C(=N)N)cc2)cc(COc2ccc(C(=N)N)cc2)c1 [drawing 761],–,25,–,15,inhibition at 12 µM [1]: 20%; inhibition at 25 µM [1]: 50%
c1cc(COc2ccc(C3=NCCN3)cc2)cc(COc2ccc(C3=NCCN3)cc2)c1 [drawing 762],–,50,–,25,–
Fc1c(COc2ccc(C3=NCCN3)cc2)cccc1COc1ccc(C2=NCCN2)cc1 [drawing 763],–,20,–,–,–
N=C(N)c1ccc(OCc2ccc(COc3ccc(C(=N)N)cc3)cc2)cc1 [drawing 766],–,20,–,10,inhibition at 12 µM [1]: 70%; inhibition at 6 µM [1]: 60%
Cc1cc(COc2ccc(C(=N)NC(C)C)cc2)cc(COc2ccc(C(=N)NC(C)C)cc2)c1 [drawing 767],6,50,70,40,inhibition at 1 µM [1]: 60%
COc1cc(C(=N)N)ccc1OCc1cc(C)cc(COc2ccc(C(=N)N)cc2OC)c1 [drawing 768],6,50,50,25,inhibition at 1 µM [1]: 10%
COc1cc(C(=N)N)ccc1OCc1cccc(COc2ccc(C(=N)N)cc2OC)c1F [drawing 769],–,50,–,30,inhibition at 12 µM [1]: 50%; inhibition at 6 µM [1]: 25%
CC(C)(C)c1cc(COc2ccc(C(=N)N)cc2)cc(COc2ccc(C(=N)N)cc2)c1 [drawing 770],6,90,70,40,inhibition at 1 µM [1]: 10%
Cn1c(-c2ccc(-c3ccc(C(=N)N)cc3)s2)nc2cc(-c3ccc(C(=N)N)cc3)ccc21 [drawing 771],12,15,20,–,inhibition at 6 µM [1]: 50%
N=C(N)c1ccc2[nH]c(-c3ccc(-c4ccc(-c5ccc(-c6ccc(-c7nc8cc(C(=N)N)ccc8[nH]7)cc6)s5)s4)cc3)nc2c1 [drawing 772],–,–,–,–,inhibition at 50 µM [3]: 10%; inhibition at 12 µM [1]: 20%; inhibition at 6 µM [1]: 20%
N=C(N)c1ccc(OCc2cccc(COc3ccc(C(=N)N)cc3)c2)cc1 [drawing 773],–,50,30,35,inhibition at 50 µM [3]: 60%; inhibition at 12 µM [1]: 70%; inhibition at 6 µM [1]: 60%
